# Assay results from ChEMBL document CHEMBL5465560, “Selectivity Literature for EUbOPEN Chemogenomic Library” (2024).
# Columns and labels:
# [1] = target: cAMP-dependent protein kinase catalytic subunit beta (Homo sapiens) (UniProt P22694); conditions: at 10 µM
# [2] = target: T1, Alpha-2A adrenergic receptor (Homo sapiens) (UniProt P08913); assay: Selectivity interaction (GPCR panel (PDSP screen)) EUB0001079a ADRA2A; conditions: at 10 µM
# T1 sequence (whole entry): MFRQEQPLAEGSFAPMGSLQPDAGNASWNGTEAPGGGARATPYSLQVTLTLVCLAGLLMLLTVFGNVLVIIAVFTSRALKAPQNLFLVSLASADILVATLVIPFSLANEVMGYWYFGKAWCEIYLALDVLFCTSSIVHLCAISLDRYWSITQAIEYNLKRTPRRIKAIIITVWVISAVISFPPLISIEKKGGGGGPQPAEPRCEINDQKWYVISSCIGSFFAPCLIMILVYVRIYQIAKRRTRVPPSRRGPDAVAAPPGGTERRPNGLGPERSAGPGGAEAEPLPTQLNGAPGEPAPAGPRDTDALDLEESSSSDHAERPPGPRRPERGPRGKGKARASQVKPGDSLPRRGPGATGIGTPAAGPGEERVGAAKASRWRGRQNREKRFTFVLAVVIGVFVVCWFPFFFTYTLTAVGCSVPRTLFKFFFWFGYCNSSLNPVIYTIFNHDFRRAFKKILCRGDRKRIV
# [3] = target: T2, Serine/threonine-protein kinase 17A (Homo sapiens) (UniProt Q9UEE5); assay: Selectivity interaction (KinomeScan (DiscoverX)) EUB0000595a STK17A; conditions: at 10 µM
# T2 sequence (whole entry): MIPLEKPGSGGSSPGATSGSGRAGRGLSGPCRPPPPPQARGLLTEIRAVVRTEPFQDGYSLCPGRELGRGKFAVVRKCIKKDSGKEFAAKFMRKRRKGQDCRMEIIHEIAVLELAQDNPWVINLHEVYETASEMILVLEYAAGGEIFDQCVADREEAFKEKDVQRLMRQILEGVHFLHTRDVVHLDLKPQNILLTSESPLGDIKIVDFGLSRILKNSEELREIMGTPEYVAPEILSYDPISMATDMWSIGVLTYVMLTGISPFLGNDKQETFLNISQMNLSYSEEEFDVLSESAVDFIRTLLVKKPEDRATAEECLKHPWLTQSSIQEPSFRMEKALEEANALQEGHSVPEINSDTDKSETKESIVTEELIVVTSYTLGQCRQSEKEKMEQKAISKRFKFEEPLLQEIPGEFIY
# [4] = target: T3, Serine/threonine-protein kinase LATS2 (Homo sapiens) (UniProt Q9NRM7); conditions: at 10 µM
# T3 sequence (whole entry): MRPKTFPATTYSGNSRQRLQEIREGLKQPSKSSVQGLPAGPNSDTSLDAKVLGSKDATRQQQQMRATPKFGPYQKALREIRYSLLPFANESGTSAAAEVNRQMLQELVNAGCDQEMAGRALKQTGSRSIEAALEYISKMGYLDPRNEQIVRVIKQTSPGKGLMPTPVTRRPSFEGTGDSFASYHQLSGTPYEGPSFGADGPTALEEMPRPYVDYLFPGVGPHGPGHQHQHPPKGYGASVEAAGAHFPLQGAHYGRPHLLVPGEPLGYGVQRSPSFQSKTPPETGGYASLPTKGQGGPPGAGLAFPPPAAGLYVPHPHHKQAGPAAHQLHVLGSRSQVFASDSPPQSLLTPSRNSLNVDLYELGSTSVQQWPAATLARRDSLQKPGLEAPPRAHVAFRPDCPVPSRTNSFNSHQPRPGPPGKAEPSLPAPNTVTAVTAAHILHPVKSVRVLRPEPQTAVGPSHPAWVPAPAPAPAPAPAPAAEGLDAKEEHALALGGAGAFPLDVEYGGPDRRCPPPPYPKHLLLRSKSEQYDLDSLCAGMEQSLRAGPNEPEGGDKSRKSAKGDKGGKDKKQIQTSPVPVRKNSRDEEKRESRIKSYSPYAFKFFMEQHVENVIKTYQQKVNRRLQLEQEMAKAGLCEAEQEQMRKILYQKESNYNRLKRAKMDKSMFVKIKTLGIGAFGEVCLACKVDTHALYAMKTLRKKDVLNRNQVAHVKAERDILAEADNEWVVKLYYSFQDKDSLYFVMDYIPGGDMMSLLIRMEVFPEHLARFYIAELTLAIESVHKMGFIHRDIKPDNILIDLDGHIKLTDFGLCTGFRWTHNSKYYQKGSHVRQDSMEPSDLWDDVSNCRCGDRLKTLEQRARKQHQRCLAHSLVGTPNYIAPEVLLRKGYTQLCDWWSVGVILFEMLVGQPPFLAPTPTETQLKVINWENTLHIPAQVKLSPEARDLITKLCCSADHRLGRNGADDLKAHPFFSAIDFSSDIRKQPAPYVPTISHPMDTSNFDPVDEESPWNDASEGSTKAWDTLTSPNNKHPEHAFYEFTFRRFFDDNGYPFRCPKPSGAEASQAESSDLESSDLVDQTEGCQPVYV
# [5] = target: Cyclin-dependent kinase 15 (Homo sapiens) (UniProt Q96Q40); conditions: at 10 µM
# [6] = target: Homeodomain-interacting protein kinase 2 (Homo sapiens, UniProt Q9H2X6); assay: Selectivity interaction (KinomeScan (DiscoverX)) EUB0000229b HIPK2; conditions: at 10 µM
# [7] = target: Tyrosine-protein kinase JAK2 (Homo sapiens, UniProt O60674); assay: Selectivity interaction (ProQinase) EUB0000171b JAK2
# [8] = target: Serine/threonine-protein kinase WNK1 (Homo sapiens) (UniProt Q9H4A3); assay: Selectivity interaction (KinomeScan (DiscoverX)) EUB0001049a WNK1; conditions: at 1 µM
# [9] = target: T4, Atypical kinase COQ8B, mitochondrial (Homo sapiens) (UniProt Q96D53); assay: Selectivity interaction (KinomeScan (DiscoverX)) EUB0001049a ADCK4; conditions: at 1 µM
# T4 sequence (whole entry): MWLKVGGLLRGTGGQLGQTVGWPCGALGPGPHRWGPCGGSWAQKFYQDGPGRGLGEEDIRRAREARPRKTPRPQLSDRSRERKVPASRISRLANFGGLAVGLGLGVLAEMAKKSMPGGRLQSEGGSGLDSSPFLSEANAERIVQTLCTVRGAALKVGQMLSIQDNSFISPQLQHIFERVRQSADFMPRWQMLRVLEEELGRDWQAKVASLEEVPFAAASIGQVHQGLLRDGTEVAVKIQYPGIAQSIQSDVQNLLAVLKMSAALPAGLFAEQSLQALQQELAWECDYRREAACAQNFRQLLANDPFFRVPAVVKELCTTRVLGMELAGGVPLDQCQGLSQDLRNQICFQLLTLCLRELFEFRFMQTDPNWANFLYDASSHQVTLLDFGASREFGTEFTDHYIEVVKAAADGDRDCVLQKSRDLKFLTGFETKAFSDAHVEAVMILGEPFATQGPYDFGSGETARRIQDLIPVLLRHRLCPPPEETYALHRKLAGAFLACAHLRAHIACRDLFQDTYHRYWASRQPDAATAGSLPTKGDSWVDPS
# [10] = target: Mitogen-activated protein kinase kinase kinase 11 (Homo sapiens) (UniProt Q16584); assay: Selectivity interaction (KinomeScan (DiscoverX)) EUB0000092b MAP3K11; conditions: at 10 µM
# Tyrosine-protein kinase JAK2, sequence (O60674 whole entry): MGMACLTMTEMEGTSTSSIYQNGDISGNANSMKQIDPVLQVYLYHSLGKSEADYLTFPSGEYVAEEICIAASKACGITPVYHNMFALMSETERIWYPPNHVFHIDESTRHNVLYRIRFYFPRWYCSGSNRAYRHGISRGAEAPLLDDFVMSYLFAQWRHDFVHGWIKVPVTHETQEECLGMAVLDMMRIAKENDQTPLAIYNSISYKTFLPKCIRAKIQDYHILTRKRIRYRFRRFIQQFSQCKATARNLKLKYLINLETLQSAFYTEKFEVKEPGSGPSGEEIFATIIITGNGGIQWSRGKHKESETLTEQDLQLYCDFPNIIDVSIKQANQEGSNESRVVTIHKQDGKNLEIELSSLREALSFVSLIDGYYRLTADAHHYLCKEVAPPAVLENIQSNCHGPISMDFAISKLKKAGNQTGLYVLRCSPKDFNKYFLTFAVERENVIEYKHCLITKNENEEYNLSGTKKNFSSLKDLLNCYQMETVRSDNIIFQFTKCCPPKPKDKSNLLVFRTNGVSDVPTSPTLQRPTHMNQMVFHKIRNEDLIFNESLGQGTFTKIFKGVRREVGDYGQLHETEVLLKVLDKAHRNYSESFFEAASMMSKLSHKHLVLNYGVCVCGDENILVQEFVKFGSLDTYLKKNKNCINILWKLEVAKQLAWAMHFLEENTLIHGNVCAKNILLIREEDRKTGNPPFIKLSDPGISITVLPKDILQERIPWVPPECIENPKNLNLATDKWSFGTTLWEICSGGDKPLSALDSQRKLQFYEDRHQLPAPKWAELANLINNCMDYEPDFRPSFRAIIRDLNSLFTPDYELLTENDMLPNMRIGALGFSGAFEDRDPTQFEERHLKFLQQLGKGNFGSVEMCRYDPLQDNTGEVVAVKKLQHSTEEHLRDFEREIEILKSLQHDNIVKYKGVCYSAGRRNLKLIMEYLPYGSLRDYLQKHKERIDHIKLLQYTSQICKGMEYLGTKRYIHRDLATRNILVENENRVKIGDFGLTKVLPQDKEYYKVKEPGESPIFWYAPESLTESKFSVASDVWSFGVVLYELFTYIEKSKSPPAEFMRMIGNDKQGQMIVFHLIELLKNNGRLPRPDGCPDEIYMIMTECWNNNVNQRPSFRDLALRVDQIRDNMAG
# Serine/threonine-protein kinase WNK1 (Homo sapiens), sequence (Q9H4A3 whole entry, looked up): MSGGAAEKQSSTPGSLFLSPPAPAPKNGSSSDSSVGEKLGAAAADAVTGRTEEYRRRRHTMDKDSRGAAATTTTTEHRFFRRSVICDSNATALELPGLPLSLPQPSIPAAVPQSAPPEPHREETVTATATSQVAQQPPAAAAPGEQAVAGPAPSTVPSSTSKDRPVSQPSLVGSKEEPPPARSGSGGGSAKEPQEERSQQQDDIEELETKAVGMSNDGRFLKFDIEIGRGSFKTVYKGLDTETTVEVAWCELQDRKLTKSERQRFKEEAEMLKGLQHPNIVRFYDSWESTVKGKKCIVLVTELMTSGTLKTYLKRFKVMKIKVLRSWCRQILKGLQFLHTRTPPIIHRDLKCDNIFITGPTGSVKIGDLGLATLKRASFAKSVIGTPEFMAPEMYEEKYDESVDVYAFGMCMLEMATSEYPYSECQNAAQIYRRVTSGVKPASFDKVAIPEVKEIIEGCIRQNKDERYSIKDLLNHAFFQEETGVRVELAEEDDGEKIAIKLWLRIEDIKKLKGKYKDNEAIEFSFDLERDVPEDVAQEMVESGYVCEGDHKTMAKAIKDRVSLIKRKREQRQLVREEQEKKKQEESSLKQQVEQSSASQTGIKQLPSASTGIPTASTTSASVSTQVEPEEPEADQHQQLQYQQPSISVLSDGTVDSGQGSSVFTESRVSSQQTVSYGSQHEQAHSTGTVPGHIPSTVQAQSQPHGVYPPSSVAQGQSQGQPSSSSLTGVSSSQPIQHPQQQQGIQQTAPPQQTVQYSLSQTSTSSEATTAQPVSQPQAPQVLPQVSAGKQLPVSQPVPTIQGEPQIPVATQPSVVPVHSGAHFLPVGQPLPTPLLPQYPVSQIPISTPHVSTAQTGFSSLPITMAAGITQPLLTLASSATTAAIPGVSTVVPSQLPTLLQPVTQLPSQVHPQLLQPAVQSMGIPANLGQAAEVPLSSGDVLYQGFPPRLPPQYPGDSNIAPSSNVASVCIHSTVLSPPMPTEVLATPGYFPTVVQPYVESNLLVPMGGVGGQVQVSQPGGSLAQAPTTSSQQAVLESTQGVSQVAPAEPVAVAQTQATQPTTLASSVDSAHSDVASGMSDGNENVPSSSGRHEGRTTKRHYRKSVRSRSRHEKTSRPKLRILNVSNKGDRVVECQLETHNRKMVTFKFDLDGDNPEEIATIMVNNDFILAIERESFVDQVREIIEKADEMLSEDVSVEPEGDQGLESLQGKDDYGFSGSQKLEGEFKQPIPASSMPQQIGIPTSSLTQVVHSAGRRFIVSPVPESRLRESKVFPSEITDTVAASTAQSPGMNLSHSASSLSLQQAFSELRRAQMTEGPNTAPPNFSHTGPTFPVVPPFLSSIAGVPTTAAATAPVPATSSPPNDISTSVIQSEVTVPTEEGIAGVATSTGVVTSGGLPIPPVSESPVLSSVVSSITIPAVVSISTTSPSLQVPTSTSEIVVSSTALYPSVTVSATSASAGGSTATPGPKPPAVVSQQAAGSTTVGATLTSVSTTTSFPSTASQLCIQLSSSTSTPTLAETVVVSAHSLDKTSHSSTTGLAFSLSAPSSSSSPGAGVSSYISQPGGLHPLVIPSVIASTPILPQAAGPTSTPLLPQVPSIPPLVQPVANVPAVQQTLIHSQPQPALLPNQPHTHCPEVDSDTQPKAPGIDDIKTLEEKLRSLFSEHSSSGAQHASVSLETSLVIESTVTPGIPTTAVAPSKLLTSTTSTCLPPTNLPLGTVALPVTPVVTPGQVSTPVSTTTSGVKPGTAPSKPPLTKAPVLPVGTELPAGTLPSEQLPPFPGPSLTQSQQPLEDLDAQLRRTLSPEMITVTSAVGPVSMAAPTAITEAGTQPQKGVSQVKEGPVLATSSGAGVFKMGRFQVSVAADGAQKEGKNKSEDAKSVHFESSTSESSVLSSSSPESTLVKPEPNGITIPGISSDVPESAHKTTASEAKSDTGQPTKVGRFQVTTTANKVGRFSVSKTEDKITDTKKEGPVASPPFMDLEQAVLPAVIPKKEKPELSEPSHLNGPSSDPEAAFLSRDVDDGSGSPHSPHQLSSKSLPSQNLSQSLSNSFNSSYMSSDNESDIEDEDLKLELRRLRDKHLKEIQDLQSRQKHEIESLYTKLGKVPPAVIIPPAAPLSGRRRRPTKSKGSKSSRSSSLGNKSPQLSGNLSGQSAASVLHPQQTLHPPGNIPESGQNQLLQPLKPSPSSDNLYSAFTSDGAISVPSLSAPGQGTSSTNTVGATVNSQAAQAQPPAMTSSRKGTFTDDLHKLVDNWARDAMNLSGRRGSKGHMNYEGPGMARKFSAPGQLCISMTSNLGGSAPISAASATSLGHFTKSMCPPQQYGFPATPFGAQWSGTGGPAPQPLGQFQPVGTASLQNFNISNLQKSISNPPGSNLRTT
# Homeodomain-interacting protein kinase 2, sequence (Q9H2X6 whole entry, looked up): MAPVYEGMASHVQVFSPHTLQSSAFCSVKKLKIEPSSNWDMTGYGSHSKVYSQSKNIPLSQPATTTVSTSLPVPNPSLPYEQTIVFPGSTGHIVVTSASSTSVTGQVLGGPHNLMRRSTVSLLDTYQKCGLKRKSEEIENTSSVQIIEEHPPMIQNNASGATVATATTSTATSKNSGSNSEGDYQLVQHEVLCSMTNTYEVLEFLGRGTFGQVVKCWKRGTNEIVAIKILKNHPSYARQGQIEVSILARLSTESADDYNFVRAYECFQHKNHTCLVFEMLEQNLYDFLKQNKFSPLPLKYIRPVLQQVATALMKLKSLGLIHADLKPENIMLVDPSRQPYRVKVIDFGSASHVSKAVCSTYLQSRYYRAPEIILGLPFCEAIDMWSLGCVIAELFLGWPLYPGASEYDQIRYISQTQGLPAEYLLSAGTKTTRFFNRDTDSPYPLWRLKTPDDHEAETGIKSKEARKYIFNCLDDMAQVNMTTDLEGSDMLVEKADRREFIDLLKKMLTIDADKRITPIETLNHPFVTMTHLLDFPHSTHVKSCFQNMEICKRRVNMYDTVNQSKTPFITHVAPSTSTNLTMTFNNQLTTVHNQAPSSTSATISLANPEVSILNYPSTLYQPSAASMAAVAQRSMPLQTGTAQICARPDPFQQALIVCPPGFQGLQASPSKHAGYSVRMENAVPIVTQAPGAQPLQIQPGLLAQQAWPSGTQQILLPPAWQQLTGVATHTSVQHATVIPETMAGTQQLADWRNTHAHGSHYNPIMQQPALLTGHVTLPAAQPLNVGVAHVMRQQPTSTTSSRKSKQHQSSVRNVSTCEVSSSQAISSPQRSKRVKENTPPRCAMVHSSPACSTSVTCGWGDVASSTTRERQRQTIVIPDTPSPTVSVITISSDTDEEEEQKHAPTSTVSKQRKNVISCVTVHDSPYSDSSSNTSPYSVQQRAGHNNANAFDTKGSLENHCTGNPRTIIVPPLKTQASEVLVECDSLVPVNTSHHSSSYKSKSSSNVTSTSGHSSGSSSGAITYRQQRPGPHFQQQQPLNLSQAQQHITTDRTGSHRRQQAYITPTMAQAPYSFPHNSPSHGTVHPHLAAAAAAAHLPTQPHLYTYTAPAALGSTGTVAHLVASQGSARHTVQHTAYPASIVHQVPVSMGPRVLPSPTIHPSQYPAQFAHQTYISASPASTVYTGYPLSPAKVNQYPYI
# Cyclin-dependent kinase 15 (Homo sapiens), sequence (Q96Q40 whole entry): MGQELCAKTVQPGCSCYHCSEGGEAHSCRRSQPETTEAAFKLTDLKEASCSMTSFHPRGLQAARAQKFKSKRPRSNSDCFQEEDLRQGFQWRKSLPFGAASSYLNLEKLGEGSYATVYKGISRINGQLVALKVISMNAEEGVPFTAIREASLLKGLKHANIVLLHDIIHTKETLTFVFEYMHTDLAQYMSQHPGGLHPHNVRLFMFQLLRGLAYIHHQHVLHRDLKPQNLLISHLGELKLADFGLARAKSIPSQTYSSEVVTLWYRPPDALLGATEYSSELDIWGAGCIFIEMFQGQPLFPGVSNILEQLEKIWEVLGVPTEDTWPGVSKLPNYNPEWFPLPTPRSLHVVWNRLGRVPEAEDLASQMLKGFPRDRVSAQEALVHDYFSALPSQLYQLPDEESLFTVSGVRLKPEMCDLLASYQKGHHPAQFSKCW
structure (smiles),measurement,setting,value
CCN(CC)CCCCNc1ncc2cc(-c3cc(OC)cc(OC)c3)c(NC(=O)NC(C)(C)C)nc2n1,% of control,[1],100%
Nc1cnc(N2CCc3cc(S(=O)(=O)Nc4c(F)cc(Cl)cc4F)cc(N4CCCC4=O)c32)nc1 [TP-020n],% of inhibition,[2],-10.1%
COCC(=O)NC/C=C/c1ccc2ncnc(Nc3ccc(Oc4ccc(C)nc4)c(C)c3)c2c1 [CP-724714],% of control,[3],84%
same,% of control,[4],100%
Cc1cc([C@@H](C)Nc2ccccc2C(=O)O)c2nc(N3CCOCC3)cc(=O)n2c1 [AZD-6482],% of control,[5],100%
COc1cc(N(C)c2ccnc3ccc(C(F)(F)F)cc23)cc(OC)c1OC,% binding,[6],100%
C=CC(=O)Nc1cccc(C(=O)Nc2ccc(Nc3cc(-c4[nH]c(SC)nc4C)ccn3)cc2)c1,% of control,[7]; at 1 µM,80%
same,% of control,[7]; at 5 µM,72%
COc1cc(Nc2nc(C)cc(-c3cnn4nc(OC)ccc34)n2)cc(C(F)(F)F)c1,% of control,[8],66%
same,% of control,[9],79%
CCC(=O)N1CCN(c2ccc(-n3c(=O)ccc4cnc5ccc(-c6cnc7ccccc7c6)cc5c43)cc2C(F)(F)F)CC1,% of control,[10],69%
